Experimental data: patent publication US11759445B2, “Use of Rivastigmine in preparation of anti-radiation medicament” (priority 2020, dated 2023)

Assays:
C57BL/6 mice = test: Survival of mice at a lethal dose (10 Gy whole body irradiation) after intraperitoneal medicament; type: in vivo, mouse; conditions: for influence on the survival time of mice after receiving irradiation: i.p. half an hour before 10 Gy whole body irradiation
Source text: 1.2.2 Experiment for Verifying the Survival Rate of Mice at a Lethal Dose
Mice were subjected to 10 Gy whole body irradiation with an X-ray biological irradiator in Department of Medicine having a dose rate of 1.5 Gy/min; and before irradiation, mice were intraperitoneally injected the medicament screened out via an in vitro experiment, and then continuously raised in a temporary storage room of the animal center after irradiation.
4 to 6 week-age C57BL/6 mice were selected as experimental subjects, and divided into control groups and experimental groups, and subjected to 10 Gy whole body irradiation with a dose rate of 1.5 Gy/min; mice in the experimental subjects were respectively intraperitoneally injected the medicaments screened half an hour before irradiation, and the survival time was recorded after irradiation. Among the medicaments, water-soluble Don-H, Pra-C and DL-Pan are dissolved by normal saline, and others were dissolved by 5 g/100 mL DMSO+edible oil. The medicament was prepared into a stock solution having a corresponding concentration according to the volume that 20 g mice were intraperitoneally injected 100 μL medicament.

crypt stem cells Lgr5+ = test: In vitro medicament screening experiment on crypt stem cells Lgr5+ of mice (GFP fluorescence after 10 Gy irradiation); type: cell-based; conditions: Mus musculus, light or radiation study, 240 h, 10 μM medicament, GFP fluorescence 10 d after irradiation, read-out: increment of the Lgr5+ stem cells compared with IR groups
Source text: 1.2.1 In Vitro Medicament Screening Experiment on Crypt Stem Cells Lgr5^+ of Mice
1) Lgr5-GFP mice were sacrificed by cervical dislocation, and enterocoelia was opened and the whole small intestine was taken out, and then the small intestine was put to a pre-cooled HBSS buffer solution to remove mesentery and adipose tissues as much as possible, and dissected longitudinally to wash out contents of the small intestine.
2) Villi and contents inside the intestinal cavity were scraped by a glass slide, and then the remaining intestinal cavity was washed for once to twice.
3) The whole small intestine was quickly cut into 5 mm intestinal segments.
4) The intestinal segments were transferred to a 50 mL centrifugal tube, and 25 mL HBSS and 250 μL penicillin/streptomycin solution were added for incubation for 10 min at room temperature, and then the centrifugal tube was slightly inverted to mix evenly for 2-3 times.
5) Supernatant was absorbed, and 10 mL new HBSS was added to wash the intestinal segments for 2-3 times till the final intestinal segments were cleaned thoroughly, then a 70 μm filter sieve was used for filtering to retain the remaining intestinal segments.
6) The intestinal segments were transferred to a 50 mL centrifugal tube, and added to a 10 mL pre-blended digestive solution for incubation for 5 min at room temperature.
7) The centrifugal tube was shaken violently or swirled for several seconds, and then a 70 μm filter sieve was used for filtering.
8) The intestinal segments were transferred to a new 50 mL centrifugal tube, and a 10 mL digestive solution was added for incubation on ice for 30 min, and then the centrifugal tube was shaken violently or swirled for several seconds, and then a 70 μm filter sieve was used for filtering. A black 96-well plate was put on an incubator for preheating during the incubation on ice.
9) The intestinal segments were transferred to a new 50 mL centrifugal tube, and 10 mL HBSS was added, then the centrifugal tube was shaken violently or swirled for several seconds, and a 70 μm filter sieve was used for filtering to retain filtrate.
10) […] for 10 min at 4° C.
11) Supernatant was removed, and crypt cells were precipitated and resuspended by a crypt cell culture solution, and then cell counting was performed microscopically.
12) Cells were diluted by a ratio of the crypt cell culture solution to matrigel=1:1 (v/v), so as to ensure that per 10 μL of mixed liquor contained about 100 crypt cells.
13) The preheated black 96-well plate was taken out, and 10 μL mixed liquor was added to the center of each well, and then the well plate was put to an incubator for 10 min at 37° C.
14) After the matrigel was solidified, each medicament in Bioactive Compound Library (790 types) was diluted by a medium to a final concentration of 10 μM, and then 100 μL was added to per well.
15) The 96-well plate was put on a multi-mode microplate reader to read fluorescence intensity under the conditions of excitation wavelength at 485 nm and emission wavelength at 528 nm, and to record the values on the same day.
16) Crypt cells were irradiated with 10 Gy radiation, and the fluorescence intensity for consecutive 10 d after irradiation was recorded; afterwards, the background fluorescence intensity of a blank control was removed, and a fluorescence intensity curve was drawn; and the test results were shown in FIGS. 1-4.
Crypt stem cells Lgr5^+ separated from Lgr5-GFP mice in vivo carried GFP fluorescence, and the change of the mean fluorescence intensity (MFI) represented the proliferation of crypt stem cells Lgr5*. […]

Structure (SMILES): CC(C)(CO)C(O)C(=O)NCCCO (racemic) [DL-Panthenol]
- influence on the survival time of mice after receiving irradiation (C57BL/6 mice; dose not stated): no statistical significance
- fold induction at 10 µM (crypt stem cells Lgr5+): 3.5

Structure (SMILES): N#C[C@@H]1C[C@@H]2C[C@@H]2N1C(=O)[C@@H](N)C12CC3CC(CC(O)(C3)C1)C2 [Saxagliptin hydrate]
- influence on the survival time of mice after receiving irradiation (C57BL/6 mice; dose not stated): no statistical significance
- fold induction at 10 µM (crypt stem cells Lgr5+): 15.9

Structure (SMILES): C[C@H](CCC(=O)O)[C@H]1CC[C@H]2[C@@H]3C(=O)C[C@@H]4CC(=O)CC[C@]4(C)[C@H]3CC(=O)[C@]12C [Dehydrocholic acid]
- survival time of the mice (C57BL/6 mice; 10 mg/kg i.p. half an hour before 10 Gy whole body irradiation): did not improve the survival time
- survival time of the mice (C57BL/6 mice; 20 mg/kg i.p. half an hour before 10 Gy whole body irradiation): did not improve the survival time
- extension of the death time of the mice (C57BL/6 mice; 40 mg/kg i.p. half an hour before 10 Gy whole body irradiation, P<0.01): 2 days
- survival time of the mice (C57BL/6 mice; 60 mg/kg i.p. half an hour before 10 Gy whole body irradiation): did not improve the survival time
- survival time of the mice (C57BL/6 mice; 80 mg/kg i.p. half an hour before 10 Gy whole body irradiation): did not improve the survival time
- survival time of the mice (C57BL/6 mice; 100 mg/kg i.p. half an hour before 10 Gy whole body irradiation): did not improve the survival time
- fold induction at 10 µM (crypt stem cells Lgr5+): 3.4

Structure (SMILES): CN1CCCCC1CCN1c2ccccc2Sc2ccc([S+](C)[O-])cc21 (stereo not drawn) [Mesoridazine Besylate]
- influence on the survival time of mice after receiving irradiation (C57BL/6 mice; dose not stated): no statistical significance
- fold induction at 10 µM (crypt stem cells Lgr5+): 4.2

Structure (SMILES): C[n+]1ccccc1/C=N/O [Pralidoxime chloride]
- fold induction at 10 µM (crypt stem cells Lgr5+): 4.8

Structure (SMILES): CCCOc1ccn2c(C(C)=O)cc(-c3ccccc3S(C)(=O)=O)c2c1 [GSK2801]
- influence on the survival time of mice after receiving irradiation (C57BL/6 mice; dose not stated): no statistical significance
- fold induction at 10 µM (crypt stem cells Lgr5+): 14.7

Structure (SMILES): CCN(C)C(=O)Oc1cccc([C@H](C)N(C)C)c1 [Rivastigmine]
- survival of mice after 30 d (C57BL/6 mice; 1 mg/kg i.p. before 10 Gy whole body irradiation): still survival mice after 30 d
- survival of mice after 30 d (C57BL/6 mice; 2 mg/kg i.p. before 10 Gy whole body irradiation): still survival mice after 30 d
- survival rate (C57BL/6 mice; 2 mg/kg i.p. before 10 Gy whole body irradiation, after 30 d, P<0.001 vs control group): greater than 40%
- survival rate of the mice (C57BL/6 mice; intraperitoneally injected, 10 Gy whole body irradiation, 30 days post irradiation, dose not stated): greater than 40%
- fold induction at 10 µM (crypt stem cells Lgr5+): 14.2
